Key:
[1] = test system: phosphoinositol turnover in rat primary cardiomyocytes; details: oxygen and glucose deprivation (untreated app. 50%); conference abstract; cited from earlier work
[2] = test system: isolated perfused rabbit hearts; assay: Isolated perfused rabbit heart (Langendorff), APD90 dispersion during hypokalemic ischemia; details: 10^-10 mol/l
human osteoblastic cells = assay: Intercellular calcium waves after mechanical stimulation, human osteoblastic cells; format: cell-based
Description: Human osteblast cells (hOB): Cells were isolated from human bone marrow obtained by puncture of the posterior iliac spine of healthy volunteers (aged 20-36): 10-15 ml marrow material was collected in 15 ml PBS+Ca,Mg (Life Technologies, Cat.No. 14040) with 100 U/ml Heparin (Sigma, Cat.No. H-3149). The mononuclear fraction of the marrow was isolated on a Lymphoprep gradient (Nycomed Pharma, Cat.No. 1001967), by centrifugation at 2200 rpm for 30 min. After harvesting, the mononuclear fraction was washed once with culture medium and centrifuged at 1800 rpm for 10 min. Subsequently cells were counted and plated in culture medium at 8x10^6 cells/100 mm dish. hOB medium (all reagents obtained from Life Technologies): MEM w/o Phenol Red w/ Glutamax (Cat.No. 041-93013) supplemented with 10% heat inactivated fetal calf serum (Cat.No. 10106) and 0.1% Penicillin/Streptomycin (Cat.No. 15140). Medium was changed the following day and the cells were cultured at 37°C in 5%CO2 with medium change every 7 days. After 3-4 weeks of culture the cells had reached 70% confluence. The medium was then supplemented with 100 nM Dexamethasone (Sigma, Cat.No. D-4902) for 7 days. Cells were then plated for video imaging experiments: a 25 mm #1 glass coverslip was
placed in a 35 mm dish (or each well of a 6-well multidish), cells were plated at 2.5×10^5 cells/coverslip and cultured for 2-3 days before use. […]

[3] = test system: calcium-induced arrythmias; assay: Calcium-induced arrhythmia model in mice (time to 2nd degree AV-block); format: in vivo; details: mouse, in vivo
Description: The antiarrhythmic effects of compounds of this invention were tested in an in vivo model of calcium-induced arrythmias according to the model of Lynch et al. ^[37]. […]. Commercial solutions of hypnorm and midazolam were diluted 1:1 in distilled water and one part diluted Hypnorm® is mixed with one part diluted midazolam.
The anaesthesia was induced by s.c. administration in a dose of […]. An i.v. cannula was inserted into the tail vein. The lead II ECG signal was recorded continuously by positioning of a stainless steel ECG electrodes on the right forelimb and on the left hind limb. The ground electrode was placed on the right hind limb. The signal was amplified (x 5.000-10.000) and filtered (0.1-150 Hz) via a Hugo Sachs Electronic model 689 ECG module. The analogue signal was digitised via a 12 bit data acquisition board (Data Translation model DT321) and sampled at 1000 Hz using the Notocord HEM 3.1 software for Windows NT. After a 10-min equilibration period, the test sample of drug was injected into the tail vein. Mice pre-treated with vehicle were tested as a measure of the control level in untreated animals. The injection volume was 100 µl in all experiments. Infusion of CaCl2 (30 mg/ml, 0.1 ml/min ≈ 100 mg/kg/min (calciumchlorid-2-hydrat, Riedel-de Haën, Germany)) was started 3 min after i.v. administration of drug or vehicle. The time lag to onset of 2nd degree AV-block was determined as the time from the start of CaCl2 infusion until the first arrhythmic event occured. An event of 2nd degree AV-block was defined as intermittent failure of the AV conduction characterised by a P-wave without the concomitant QRS complex.
Responses were expressed relative to the time until 2nd degree AV-block occurred in vehicle treated mice.

CHO cells = assay: In situ binding of [125I]AAP10 on intact CHO cells; details: overnight at 4° C
Description: CHO cells are seeded in 24-multi well dishes in a density of 7,900 cells/cm^2 (∼ 15,000 cells/well) and grown for 3 Days In Vitro (DIV) in 1 ml/well of F-12K Nutrient Mixture supplemented with 10% Foetal Calf Serum (FCS) and 1000 units penicillin/1000 µg streptomycin (pen/strep) in an atmosphere of 5% CO2 and 100% humidity at 37° C. The cell density has at that time increased to 295,000 cells/cm^2 (152 pgprot/cell ∼ 85 µgprot/well).
On the day of analysis cells are removed from the incubator and each well is washed twice with, depending on the experiment, either 2 ml pre-warmed (37 °C) or ice-cold (0 °C) D-PBS to remove serum. It is important to keep the period to a minimum during which cells are left without physiological solutions to avoid that they dry out during washing procedures. The cold washed cells are used directly for binding assays while the warm washed cells are used for experiments with glucose and oxygen deprivation.
The in situ binding is performed by a modified protocol based on the description by Koenig. […] Cells incubate overnight at 4° C to reach equilibrium. Each well, one at the time, is then rinsed rapidly with 2 x 1 ml D-PBS and left to dry.
0.25 ml of 0.5 % Triton-X-100 (v/v) is added to each well and cells left for at least 1 h to solubilize. The extract is transferred to counting vials, the wells rinsed with 0.25 ml water and the rinse extract added to the corresponding vials. The vials are counted in a γ-counter. Table 3. In situ binding, IC50 (nM).

ROS 17/2.8 cells = assay: Intercellular calcium waves after mechanical stimulation, ROS 17/2.8 cells; format: cell-based, rat; details: 10^-8 M, 10 minutes, after 48 hours hypoxia 3-6% O2 (2.2 cells before)
Description: ROS 17/2.8 cells: Cells were cultured in 100 mm dishes at 37°C with 5% CO2 and medium change every 2-3 days. ROS medium (all reagents obtained from Life Technologies): MEM (Cat.No. 31095) supplemented with 10% heat-inactivated calf serum (Cat.No. 16170), 1% NEAA (Cat.No. 11140), 1% Sodium Pyruvate (Cat.No. 11360), 1% L-Glutamine (Cat.No. 25030) and 0.1% Penicillin/Streptomycin (Cat.No. 15140). For video imaging experiments, cells were plated on coverslips at 2-3×10^5 cells/coverslip and cultured for 2-3 days before use.
The cells cultured on coverslips were loaded with 5 µM fura-2-AM (Molecular Probes, Cat.No. F-1221), for 30 minutes at 37°C, and incubated in fresh medium for 20 minutes. Coverslips were then affixed to a PDMI-2 culture chamber (Medical Systems Corp.), maintained at 37°C with superfused CO2, on a Zeiss Axiovert microscope. Intercellular calcium waves were induced by mechanical stimulation of a single cell using a borosilicate glass micro pipette affixed to an Eppendorf 5171 micromanipulator. Imaging was performed using a MetaMorph imaging system (Universal Imaging). The excitation light (340 and 380 nm) was provided by a monochromator (T.I.L.L. Photonics GmbH). Images were acquired with an intensified CCD camera (Dage MTI) and digitized with a Matrox MVP image processing board.

## Ac-D-Tyr-D-Pro-D-4Hyp-Gly-D-Ala-Gly-NH2 [Compound 2]
[1]
  noradrenalin-induced PI turnover, % of the normal level: ~90%
[2]
  increase in APD90 dispersion during hypokalemic, acute myocardial ischemia: prevented
Human osteoblastic cells; 10^-8 M, medium without glucose, after ATP desensitization (1.4 cells before)
  average number of cells in the calcium wave: 2.9 cells
Human osteoblastic cells; 10^-8 mol/l, 10 minutes, after ATP desensitization (4.5 cells before)
  average number of cells in the calcium wave: 6.2 cells
[3]
  CaCl2 mice Score: 3
CHO cells
  IC50: 0.5 nM
ROS 17/2.8 cells
  average number of cells in the calcium wave: 5.4 cells

Reference: EP1370276B1, “INTERCELLULAR COMMUNICATION FACILITATING COMPOUNDS AND THEIR MEDICAL USE” (Zealand Pharma A/S, priority 2001, dated 2002)
